This passage reports IC50 results from patent publication US11524966B1 (Valo Early Discovery, Inc., priority 2017, dated 2022).

In general, IC50 refers to the concentration at which inhibition is half-maximal.

Where only a bound is given, the exact number is not on record here.

The target of the assay is T1, USP25 (USP25-His6, Boston Biochem E-546) (Homo sapiens, UniProt Q9UHP3).
T1 construct: His6; purchased Boston Biochem E-546
T1 sequence (Q9UHP3 1-1055): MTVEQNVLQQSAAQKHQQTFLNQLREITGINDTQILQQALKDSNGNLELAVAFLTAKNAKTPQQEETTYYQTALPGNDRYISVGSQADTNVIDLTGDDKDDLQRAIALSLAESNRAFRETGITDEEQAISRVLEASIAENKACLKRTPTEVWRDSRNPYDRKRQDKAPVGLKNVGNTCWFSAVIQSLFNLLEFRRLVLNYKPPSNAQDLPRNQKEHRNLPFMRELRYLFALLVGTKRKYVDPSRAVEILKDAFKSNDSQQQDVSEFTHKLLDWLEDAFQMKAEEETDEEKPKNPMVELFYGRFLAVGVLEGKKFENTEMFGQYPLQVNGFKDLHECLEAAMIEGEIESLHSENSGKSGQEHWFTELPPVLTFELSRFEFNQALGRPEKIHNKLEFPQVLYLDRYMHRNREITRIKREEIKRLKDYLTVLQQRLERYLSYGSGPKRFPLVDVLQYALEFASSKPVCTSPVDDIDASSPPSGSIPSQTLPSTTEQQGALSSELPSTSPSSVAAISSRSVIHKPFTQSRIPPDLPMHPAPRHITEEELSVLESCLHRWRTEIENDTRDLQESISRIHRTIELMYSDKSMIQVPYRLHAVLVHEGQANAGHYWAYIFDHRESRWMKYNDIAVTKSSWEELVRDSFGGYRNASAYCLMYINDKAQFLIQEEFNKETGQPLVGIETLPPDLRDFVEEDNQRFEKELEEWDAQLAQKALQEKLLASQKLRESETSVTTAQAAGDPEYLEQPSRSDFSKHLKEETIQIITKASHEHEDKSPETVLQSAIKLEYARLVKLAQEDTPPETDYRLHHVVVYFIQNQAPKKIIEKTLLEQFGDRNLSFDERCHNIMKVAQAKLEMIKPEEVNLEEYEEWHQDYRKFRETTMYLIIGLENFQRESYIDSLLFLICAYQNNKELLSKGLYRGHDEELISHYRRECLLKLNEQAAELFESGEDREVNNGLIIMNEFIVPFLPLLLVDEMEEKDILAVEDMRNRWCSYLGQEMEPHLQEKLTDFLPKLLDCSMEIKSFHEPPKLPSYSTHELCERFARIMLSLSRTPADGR
The assay can be described thus: Ubiquitin-Rhodamine 110 Assay for USP25 Activity, Example A-2. The assay is classed as biochemical. The conditions noted are these: Ub-Rh110 assay, Example A-2; read-out: USP25 A-2 IC50 range. The method, then: The assay was performed in a final volume of 9 μL in assay buffer containing 20 mM Tris-HCl (pH 8.0, (1M Tris-HCl, pH 8.0 solution; Corning 46-031-CM)), 3 mM BME (2-Mercaptoethanol; Sigma 63689-25ML-F), 0.03% BGG (0.22 μM filtered, Sigma, G7516-25G), and 0.01% Triton X-100 (Sigma, T9284-10L). Nanoliter quantities of 10-point, 3-fold serial dilution in DMSO was pre-dispensed into 1536 assay plates (Corning, #3724BC) for a final test concentration of 25 μM to 1.3 nM, top to lowest dose, respectively. Enzyme USP25, construct USP25-His6, (Boston Biochem E-546). Concentration and incubation times were optimized for the maximal signal-to-background while maintaining initial velocity conditions at a fixed substrate concentration. The final concentration of the enzyme in the assay was 75 pM. Final substrate (Ub-Rh110; Ubiquitin-Rhodamine 110, R&D Systems #U-555) concentration was 25 nM with [Ub-Rh110]<<Km. 3 μL of 2× enzyme was added to assay plates (pre-stamped with compound) preincubated with […] for 30 minutes and then 3 μL of 2×Ub-Rh110 was added to assay plates. Plates were incubated for 45 minutes at room temperature before addition of 3 μL of stop solution (final concentration of 10 mM citric acid (Sigma, 251275-500G)). Fluorescence was read on the Envision (Excitation at 485 nm and Emission at 535 nm; Perkin Elmer) or on the PheraSTAR (Excitation at 485 nm and Emission at 535 nm; BMG Labtech).
IC50 values were determined by curve fitting of the standard 4 parameter logistic fitting algorithm included in the Activity Base software package: IDBS XE Designer Model 205. Data is fitted using the Levenburg Marquardt algorithm.
Turning to `Cc1cc(C)c2c(N)c(C(=O)N[C@H]3COc4cc(N5CC6CC(C5)N6)ccc4C3)sc2n1` [Example 2-18, N-((3R)-7-(3,6-diazabicyclo[3.1.1]heptan-3-yl)chroman-3-yl)-3-amino-4,6-dimethylthieno[2,3-b]pyridine-2-carboxamide], the concentration for half-maximal inhibition (IC50) lay in the range of 50 to 200 nM.
For `Cc1cnc2c(N)c(C(=O)N[C@H]3COc4cc(N5CC6CNCC(C5)O6)ccc4C3)sc2n1` [Example 2-13, N-((3R)-7-(9-oxa-3,7-diazabicyclo[3.3.1]nonan-3-yl)chroman-3-yl)-7-amino-3-methylthieno[2,3-b]pyrazine-6-carboxamide], the IC50 was in the range of 200 to 2000 nM.
On to `COc1nc2sc(C(=O)N[C@H]3COc4cc(N5CCNCC5)ccc4C3)c(N)c2cc1F` [Example 2-16, (R)-3-amino-5-fluoro-6-methoxy-N-(7-(piperazin-1-yl)chroman-3-yl)thieno[2,3-b]pyridine-2-carboxamide], for which the IC50 was 200 to 2000 nM.
Next, `CO[C@@H]1CN(c2ccc3c(c2)OC[C@H](NC(=O)c2sc4nc(C)ccc4c2N)C3)C[C@H]1N` (single isomer, unassigned) [Example 3-2]: 200 to 2000 nM.
Regarding `Cc1ccc2c(N)c(C(=O)N[C@@H]3COc4cc(N5CCNCC5)ccc4C3)sc2n1` (single isomer, unassigned) [Example 1-2], the IC50 was over 2000 nM.
Regarding `Cc1nc2sc(C(=O)N[C@@H]3COc4cc(N5CC6CCC(C5)N6)cc(F)c4C3)c(N)c2s1` (single isomer, unassigned) [Example 1-40], the concentration for half-maximal inhibition (IC50) was over 2000 nM.
As to `CCn1ccc2cc(C(=O)N[C@H]3COc4cc(N5CC6CNCC(C5)C6(F)F)ccc4C3)cnc21` [Example 2-30, N-((3R)-7-(9,9-difluoro-3,7-diazabicyclo[3.3.1]nonan-3-yl)chroman-3-yl)-1-ethyl-1H-pyrrolo[2,3-b]pyridine-5-carboxamide], the IC50 lay in the range of 1 to 50 nM.
In the case of `Cc1cnc2c(N)c(C(=O)N[C@H]3COc4cc(N5CC6COCC(C5)N6)ccc4C3)sc2n1` [Example 2-12, N-((3R)-7-(3-oxa-7,9-diazabicyclo[3.3.1]nonan-7-yl)chroman-3-yl)-7-amino-3-methylthieno[2,3-b]pyrazine-6-carboxamide], the half-inhibitory concentration (IC50) lay within 200 to 2000 nM.
Next, `Cc1nc2sc(C(=O)N[C@H]3COc4cc(N5CC6CNCC(C5)C6(F)F)ccc4C3)c(N)c2s1` [Example 2-28, 6-amino-N-((3R)-7-(9,9-difluoro-3,7-diazabicyclo[3.3.1]nonan-3-yl)chroman-3-yl)-2-methylthieno[2,3-d]thiazole-5-carboxamide]: 50 to 200 nM; `Cc1ccc2c(N)c(C(=O)N[C@H]3COc4cc(N5CC6CCC(C5)N6)ccc4C3)sc2n1` (single isomer, unassigned) [Example 1-3]: 1 to 50 nM.
With `Cc1cc(C)c2c(N)c(C(=O)N[C@H]3COc4cc(N5CCNCC5)c(C#N)c(F)c4C3)sc2n1` [Example 2-32, (R)-3-amino-N-(6-cyano-5-fluoro-7-(piperazin-1-yl)chroman-3-yl)-4,6-dimethylthieno[2,3-b]pyridine-2-carboxamide], the IC50 lay within 1 to 50 nM.
Take `CO[C@H]1CN(c2ccc3c(c2)OC[C@H](NC(=O)c2sc4nc(C)ccc4c2N)C3)C[C@@H]1N` (single isomer, unassigned) [Example 3-1]: the IC50 is 200 to 2000 nM.
Regarding `Cc1ccc2c(N)c(C(=O)N[C@H]3COc4cc(N5CC6CNCC(C5)C6(F)F)c(C#N)cc4C3)sc2n1` [Example 2-33, 3-amino-N-((3R)-6-cyano-7-(9,9-difluoro-3,7-diazabicyclo[3.3.1]nonan-3-yl)chroman-3-yl)-6-methylthieno[2,3-b]pyridine-2-carboxamide], the IC50 lay in the range of 1 to 50 nM.
On to `Cc1ccc2c(N)c(C(=O)N[C@H]3COc4cc(N5CCN[C@H](C)[C@@H]5C)ccc4C3)sc2n1` (single isomer, unassigned) [Example 1-9], for which the concentration for half-maximal inhibition (IC50) fell in the range of 200 to 2000 nM.
As to `Cc1ccc2c(N)c(C(=O)N[C@H]3COc4cc(N5C6CCC5CNC6)ccc4C3)sc2n1` [Example 2-6, N-((3R)-7-(3,8-diazabicyclo[3.2.1]octan-8-yl)chroman-3-yl)-3-amino-6-methylthieno[2,3-b]pyridine-2-carboxamide], the half-inhibitory concentration (IC50) is 50 to 200 nM.
On to `CCn1ccc2cc(C(=O)N[C@H]3COc4cc(N5CC6CCCC(C5)N6)ccc4C3)nnc21` [Example 2-29, N-((3R)-7-(3,9-diazabicyclo[3.3.1]nonan-3-yl)chroman-3-yl)-7-ethyl-7H-pyrrolo[2,3-c]pyridazine-3-carboxamide], for which the half-maximal inhibitory concentration (IC50) fell in the range of 200 to 2000 nM.
Take `Cc1ccc2c(N)c(C(=O)N[C@@H]3COc4cc(N5CCN[C@H](C)[C@@H]5C)ccc4C3)sc2n1` (single isomer, unassigned) [Example 1-10]: the 50% inhibitory concentration (IC50) was in the range of 200 to 2000 nM.
With `Cc1ccc2c(N)c(C(=O)N[C@H]3COc4cc(N5CC6CCCC(C5)N6)ccc4C3)sc2n1` (single isomer, unassigned) [Example 1-5], the IC50 lay in the range of 1 to 50 nM.
Regarding `Cc1nc2sc(C(=O)N[C@H]3COc4cc(N5CC6CC(C5)N6)ccc4C3)c(N)c2cc1F` [Example 2-15, N-((3R)-7-(3,6-diazabicyclo[3.1.1]heptan-3-yl)chroman-3-yl)-3-amino-5-fluoro-6-methylthieno[2,3-b]pyridine-2-carboxamide], the IC50 lay in the range of 50 to 200 nM.
On to `Cc1ccc2c(N)c(C(=O)N[C@@H]3COc4cc(N5CC6CC(C5)N6)cc(F)c4C3)sc2n1` (single isomer, unassigned) [Example 1-41], for which the IC50 lay in the range of 50 to 200 nM.
For `Cc1cc(C)c2c(N)c(C(=O)N[C@H]3COc4cc(N5CCNCC5)ccc4C3)sc2n1` [Example 2-17, (R)-3-amino-4,6-dimethyl-N-(7-(piperazin-1-yl)chroman-3-yl)thieno[2,3-b]pyridine-2-carboxamide], the concentration for half-maximal inhibition (IC50) lay in the range of 50 to 200 nM.
`Cc1ccc2c(N)c(C(=O)N[C@@H]3COc4cc(N5CC6CCCC(C5)N6)ccc4C3)sc2n1` (single isomer, unassigned) [Example 1-6]: the IC50 is over 2000 nM.
Regarding `Cc1cc(C)c2c(N)c(C(=O)N[C@H]3COc4cc(N5CC6CNCC(C5)C6(F)F)ccc4C3)sc2n1` [Example 2-19, 3-amino-N-((3R)-7-(9,9-difluoro-3,7-diazabicyclo[3.3.1]nonan-3-yl)chroman-3-yl)-4,6-dimethylthieno[2,3-b]pyridine-2-carboxamide], the half-inhibitory concentration (IC50) is 1 to 50 nM.
The same measure for `Cc1nc2sc(C(=O)N[C@H]3COc4cc(N5CC6CC(C5)N6)ccc4C3)c(N)c2s1` [Example 2-26, N-((3R)-7-(3,6-diazabicyclo[3.1.1]heptan-3-yl)chroman-3-yl)-6-amino-2-methylthieno[2,3-d]thiazole-5-carboxamide]: 200 to 2000 nM; for `Cc1ccc2c(N)c(C(=O)N[C@H]3COc4cc(N5CCC[C@](N)(C(F)(F)F)C5)ccc4C3)sc2n1` (single isomer, unassigned) [Example 3-4]: 200 to 2000 nM.
With `Cc1ccc2c(N)c(C(=O)N[C@@H]3COc4cc(N5CC6CCC(C5)N6)cc(F)c4C3)sc2n1` (single isomer, unassigned) [Example 1-30], the IC50 is over 2000 nM.
Take `Cc1cnc2c(N)c(C(=O)N[C@H]3CCc4c(ccc(N5CCNCC5)c4C)C3)sc2n1` (single isomer, unassigned) [Example 2-36]: the half-inhibitory concentration (IC50) was over 2000 nM.
